According to ChEMBL document CHEMBL1201862, “PubChem BioAssay data set” (2004):
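In this assay, cells in 96-well plates receive the compound at five concentrations for 48 hours. Endpoints are linearly interpolated between the surrounding concentrations. GI50 is the concentration that inhibits growth by half.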 The source made the active and inactive calls. No stated cut-off is given here; in the data, active = GI50 up to about 1.1 µM and inactive = higher.

Assays:
Assay in all cases: DTP human tumour cell line panel, 48 h
MCF7 = test system: MCF7
NCI-H226 = test system: NCI-H226
CAKI-1 = test system: CAKI-1
MDA-MB-435 = test system: MDA-MB-435
NCI-H460 = test system: NCI-H460
A498 = test system: A498
HOP-92 = test system: HOP-92
A549 = test system: A549
LOX IMVI = test system: LOX IMVI
HCT-15 = test system: HCT-15
SF-268 = test system: SF-268
SK-MEL-5 = test system: SK-MEL-5
MDA-N = test system: MDA-N
SNB-19 = test system: SNB-19
OVCAR-5 = test system: OVCAR-5
SF-539 = test system: SF-539
NCI-H23 = test system: NCI-H23
BT-549 = test system: BT-549
TK-10 = test system: TK-10
786-0 = test system: 786-0

For `O=C1NCN(c2ccccc2)C12CCN(CCCN1CCN(CCOC(c3ccc(F)cc3)c3ccc(F)cc3)CC1)CC2`, the GI50 (MCF7) was 1920 nM (inactive), the GI50 (NCI-H226) was 1860 nM (inactive) and the GI50 (CAKI-1) was 2120 nM (inactive). For the same compound, the GI50 (MDA-MB-435) was 1760 nM (inactive), the GI50 (NCI-H460) was 2000 nM (inactive) and the GI50 (A498) was 1840 nM (inactive). The GI50 (HOP-92) was 1640 nM (inactive), the GI50 (A549) was 2030 nM (inactive) and the GI50 (LOX IMVI) was 1860 nM (inactive). For the same compound, the GI50 (HCT-15) was 2230 nM, the GI50 (SF-268) was 1870 nM (inactive) and the GI50 (SK-MEL-5) was 1690 nM (inactive). The GI50 (MDA-N) was 1820 nM (inactive), the GI50 (SNB-19) was 2720 nM (inactive) and the GI50 (OVCAR-5) was 3150 nM (inactive). For the same compound, the GI50 (SF-539) was 1710 nM (inactive), the GI50 (NCI-H23) was 3510 nM (inactive) and the GI50 (BT-549) was 2640 nM (inactive). For the same compound, the GI50 (TK-10) was 1750 nM (inactive) and the GI50 (786-0) was 1630 nM (inactive).
